Experimental data: ChEMBL document CHEMBL6153172, “MALT1 Inhibitors and Degraders: Strategies for NF-κB-Driven Malignancies” (J Med Chem, 2025)
pIC50, pKi: −log10 of the molar value. Where a SMILES comes first, the peptide text is derived from it. The star is where a group is joined. Cbz = O=C(OCc1ccccc1)*; CH2F = FC*

Legend:
[1] = target: T1, Mucosa-associated lymphoid tissue lymphoma translocation protein 1 (Homo sapiens, UniProt Q9UDY8); assay: biochemical
T1 sequence (Q9UDY8 whole entry): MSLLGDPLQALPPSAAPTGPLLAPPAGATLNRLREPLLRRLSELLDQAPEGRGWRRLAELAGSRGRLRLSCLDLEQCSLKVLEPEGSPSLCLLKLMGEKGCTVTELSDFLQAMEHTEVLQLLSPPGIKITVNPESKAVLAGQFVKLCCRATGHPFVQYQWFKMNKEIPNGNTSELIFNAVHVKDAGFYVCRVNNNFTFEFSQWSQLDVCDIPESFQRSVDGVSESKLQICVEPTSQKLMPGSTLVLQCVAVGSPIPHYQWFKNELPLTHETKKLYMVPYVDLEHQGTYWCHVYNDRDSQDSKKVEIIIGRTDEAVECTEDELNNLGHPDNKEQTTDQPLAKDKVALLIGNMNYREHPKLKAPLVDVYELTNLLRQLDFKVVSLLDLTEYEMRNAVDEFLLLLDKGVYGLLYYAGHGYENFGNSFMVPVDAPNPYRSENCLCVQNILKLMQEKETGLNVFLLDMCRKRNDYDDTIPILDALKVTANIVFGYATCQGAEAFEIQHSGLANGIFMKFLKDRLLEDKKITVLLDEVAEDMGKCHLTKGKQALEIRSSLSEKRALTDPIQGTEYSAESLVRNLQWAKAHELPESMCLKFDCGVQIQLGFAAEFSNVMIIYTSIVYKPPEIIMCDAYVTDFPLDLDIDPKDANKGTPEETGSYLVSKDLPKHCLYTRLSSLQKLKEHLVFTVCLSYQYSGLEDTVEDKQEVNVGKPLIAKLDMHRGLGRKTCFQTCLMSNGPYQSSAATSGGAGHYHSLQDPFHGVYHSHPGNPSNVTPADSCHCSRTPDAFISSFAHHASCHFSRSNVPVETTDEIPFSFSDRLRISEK
Description: Inhibition of human full length His-tagged MALT1 (1 to 824 residues) infected in baculovirus infected Insect cells using Ac-LRSR-AMC as substrate incubated for 1 hr by HTRF assay

[2] = system: OCI-Ly3; assay: Growth inhibition of human OCI-Ly3 cells
[3] = target: T1, Mucosa-associated lymphoid tissue lymphoma translocation protein 1
Description: Inhibition of MALT1 (unknown origin)

[4] = system: OCI-Ly3; assay: Antiproliferative activity against human OCI-Ly3 cells; type: functional, cell-based
[5] = target: T1, Mucosa-associated lymphoid tissue lymphoma translocation protein 1; remark: listed apart in the source
Description: Binding affinity to full length C-terminal His-tagged wild-type MALT1 catalytic domain (329 to 566 residues) (unknown origin) extracted from Escherichia coli BL21 (DE3) assessed as inhibition constant

[6] = target: T1, Mucosa-associated lymphoid tissue lymphoma translocation protein 1; assay: Inhibition MALT1 (unknown origin) using Ac-LRSR-AMC as substrate by fluorescence based analysis
[7] = target: T1, Mucosa-associated lymphoid tissue lymphoma translocation protein 1; assay: biochemical; remark: listed apart in the source
Description: Inhibition of C-terminal human full length wild type MALT1 (329 to 824 residues) extracted from baculovirus infected Sf21 cells using Ac-Leu-Arg-Ser-Arg-Rh110-dPro incubated for 60 mins by fluorescence based analysis

[8] = target: T1, Mucosa-associated lymphoid tissue lymphoma translocation protein 1; assay: Inhibition of GST-tagged human recombinant MALT1 extracted from Escherichia coli using Ac-LRSR-AMC as substrate by fluorescence based analysis
[9] = target: T1, Mucosa-associated lymphoid tissue lymphoma translocation protein 1; assay: biochemical; remark: listed apart in the source
Description: Inhibition of N-terminal recombinant human MALT1 (329 to 824 residues) extracted from baculovirus infected Sf21 cells using c-LRSR~Rhodamine110-DP as substrate by fluorescence based assay

[10] = target: T1, Mucosa-associated lymphoid tissue lymphoma translocation protein 1; assay: Inhibition of N-terminal human recombinant MALT1 expressed in Jurkat cells assessed as suppression of IL-2 secretion

For `CC1(C(F)(F)F)CN(C(=O)Nc2ccc3nonc3c2)c2cnc3cc(Cl)nn3c21` (stereo not drawn), the pIC50 [1] was 7.47.
For `CC(C)[C@H](NC(=O)OCc1ccccc1)C(=O)N[C@@H](CCCNC(=N)N)C(=O)N1CCC[C@H]1C(=O)N[C@@H](CCCNC(=N)N)C(=O)CF`, the GI50 [2] was 2.5 µM.
Work on `COC(C)c1c(NC(=O)Nc2cnc(-n3nccn3)c(C(F)(F)F)c2)cnc2sc(C)nc12` (stereo not drawn) yielded a pIC50 [3] greater than 7.30.
`CC1(C)CCC2=C(O1)c1ccccc1C(=O)C2=O` [LAPACHONE] was tested, and the pIC50 [4] was 5.40.
`CO[C@@H](C)c1c(NC(=O)Nc2cnc3c(c2)COc2ccnn2-3)cnc2cc(Cl)nn12` was tested, and the pIC50 [1] was 7.47.
With `CC(C)[C@H](NC(=O)OCc1ccccc1)C(=O)N1CCC[C@H]1C(=O)N[C@@H](CCCNC(=N)N)C(=O)CF` (Cbz-Val-Pro-Arg-CH2F) the pKi [5] was 7.52 and the GI50 [2] was 5.62 µM.
With `C[C@]1(C(F)(F)F)CN(C(=O)Nc2cnc(-n3nccn3)c(Cl)c2)c2cnc3cc(Cl)nn3c21` the pIC50 [1] was greater than 8.00.
`CC(C)C[C@H](NC(=O)OCc1ccccc1)C(=O)N[C@H](C(=O)N1CCC[C@H]1C(=O)N[C@@H](CCCNC(=N)N)C(=O)CF)C(C)C` (Cbz-LVPR-CH2F) gave a GI50 [2] of 0.768 µM.
With `O=C1NC2C=CC(n3ncc(C(=O)Nc4cnc(-n5nccn5)c(Cl)c4)c3C(F)(F)F)=C3C=CC=C1C32` (stereo not drawn) the pIC50 [1] was 7.82.
With `CO[C@@H](C)c1c(NC(=O)Nc2cncc(C(F)(F)F)c2)cnc2cc(Cl)nn12` the pIC50 [6] was 8.40.
`CO[C@@H](c1c(NC(=O)Nc2cnc(-n3nccn3)c(C(F)(F)F)c2)cnc(C)c1C#N)C1CC1` gave a pIC50 [3] of 7.70.
In the case of `O=C(Nc1cncc(C(F)(F)F)c1)Nc1cnn2cc(Cl)nc2c1C1CC1`, the pIC50 [3] was greater than 7.00.
`CO[C@H](C)c1c(NC(=O)Nc2cnc(C(=O)N3CCCC3)c(Cl)c2)cnc2cc(Cl)nn12` was tested, and the pIC50 [7] was 7.85.
`CC(C)[C@H](NC(=O)c1ccc(Br)cc1)C(=O)N1CCC[C@H]1C(=O)N[C@@H](CCCNC(=N)N)C(=O)CF` was tested, and the GI50 [2] was 0.087 µM.
`CN(C)CCCN1c2ccccc2Sc2ccccc21` [PROMAZINE] showed a pIC50 [8] of 5.42.
Compound `CCc1ccc2cnn(C)c2c1NS(=O)(=O)c1ccc(N2C[C@](O)(C(F)(F)F)CC2=O)nc1` has a pIC50 [9] of 7.80 and a pIC50 [10] of 7.28.
